Nine molecules from ChEMBL document CHEMBL1201862, “PubChem BioAssay data set” (2004) can be followed below.

Structures are written as SMILES.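 All cell lines were grown in 96-well plates and treated with compound for 48 hours. Here, GI50 denotes the concentration required for 50% inhibition of growth.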 Active and inactive are the calls of the source. Rule as the data show it: active = GI50 up to about 1.1 µM and inactive = higher.

Holding throughout (test): NCI-60 cell line screen, 48 h
Assay [1] deals with A549.
Assay [2] relates to HL-60.
Assay [3] relates to HOP-92.
For assay [4], the system named is K562.
Assay [5] concerns KM12.
Assay [6] has as its system Malme-3M.
The test system of assay [7] is NCI-H226.
For assay [8], the system named is NCI-H522.
For assay [9], the system named is NCI/ADR-RES.
The subject of assay [10] is OVCAR-3.
In assay [11] the test system is OVCAR-4.
Assay [12] has as its system RPMI-8226.
Assay [13] concerns SF-268.
For assay [14], the system named is SF-539.
Assay [15] has as its system SK-MEL-28.
Assay [16] deals with SK-OV-3.
In assay [17] the test system is SNB-75.
In assay [18] the test system is U-251.
Assay [19] deals with UACC-257.
Assay [20] deals with NCI-H23.

For `Nc1cccc2c1C1=NNC(=O)CC1C2` (centres undefined), the GI50 in [1] was > 100 µM (inactive); in assay [2], > 66.5 µM (inactive); in assay [3], 2.51 µM (inactive); in assay [4], > 100 µM (inactive); in [5], > 100 µM (inactive); in assay [6] it was > 100 µM (inactive). Also, the GI50 in assay [7], in assay [8], in assay [9], in assay [10], in assay [11] and in assay [12] was > 100 µM (inactive) throughout. Besides, the GI50 in [13], in [14], in assay [15], in assay [16], in assay [17] and in [18] was > 100 µM (inactive) in each case. The GI50 in [19] is > 100 µM (inactive).
With `N=C(CSS(=O)(=O)O)NC1CC2CCC1C2` (centres undefined), the GI50 in assay [1] is > 100 µM (inactive); in assay [2] it was > 100 µM (inactive); in [3], > 100 µM (inactive); in assay [4] it was 98.6 µM (inactive); in assay [5], > 100 µM (inactive); in [6] it was > 100 µM (inactive). In addition, the GI50 in assay [7], in assay [20], in assay [8], in [9], in assay [10] and in [11] was > 100 µM (inactive) throughout. In addition, the GI50 in assay [12], in assay [13], in assay [14], in [15], in assay [16] and in assay [17] was > 100 µM (inactive) in each case. The GI50 in assay [18] was 57.8 µM (inactive); in assay [19], > 100 µM (inactive).
Consider `C[N+](C)(C)CC1CCCC(C[N+](C)(C)C)C1=O` (centres undefined), for which the GI50 is 14.8 µM (inactive) in assay [1]; 0.272 µM (active) in [2]; 0.441 µM (active) in assay [3]; 0.0724 µM (active) in [4]; 4.66 µM (inactive) in assay [5]; 0.212 µM (active) in assay [6]. The GI50 was 15.6 µM (inactive) in [7]; 2.42 µM (inactive) in assay [20]; 0.447 µM (active) in [8]; 2.59 µM (inactive) in assay [9]; 0.703 µM (active) in assay [10]; 0.641 µM (active) in assay [11]. The GI50 in assay [12] is 0.0579 µM (active); in [13], 7.31 µM (inactive); in assay [14] it was 4.79 µM (inactive); in [15], 1.85 µM (inactive); in assay [16], 13.7 µM (inactive); in assay [17] it was 4.7 µM (inactive). Besides, the GI50 in assay [18] is 3.35 µM (inactive); in [19] it was 0.805 µM (active).
Regarding `CCOC(=O)CCC(NC(=O)OCc1ccccc1)C(=O)NC(CCC(=O)OCC)C(=O)NNC(=O)OC(C)(C)C` (centres undefined), the GI50 is > 100 µM (inactive) in [2]; > 100 µM (inactive) in assay [3]; > 100 µM (inactive) in assay [4]; > 100 µM (inactive) in [5]; > 100 µM (inactive) in assay [6]; 36.6 µM (inactive) in assay [7]. The GI50 in assay [20], in assay [8], in assay [9], in assay [10], in assay [12] and in assay [15] was > 100 µM (inactive) in each case. For the same molecule, the GI50 in [16], in [17] and in assay [18] was > 100 µM (inactive) each time.
As to `CC(=O)Oc1cc2c(cc1OC(C)=O)OCC(c1ccccc1)C2` (centres undefined), the GI50 in assay [1] was 13 µM (inactive); in [2], 3.5 µM (inactive); in assay [3] it was 9.23 µM (inactive); in [4] it was 12.1 µM (inactive); in assay [5], 25.8 µM (inactive); in assay [6] it was 16.1 µM (inactive). For the same molecule, the GI50 was 22.2 µM (inactive) in [7]; 32.2 µM (inactive) in assay [20]; 2.4 µM (inactive) in [8]; 31.3 µM (inactive) in assay [9]; 22.6 µM (inactive) in [10]; 24 µM (inactive) in assay [11]. Further, the GI50 in assay [12] was 8.39 µM (inactive); in assay [13], 14.7 µM (inactive); in assay [14], 25.7 µM (inactive); in [15], 31 µM (inactive); in assay [16], 40.7 µM (inactive); in assay [17] it was 8.18 µM (inactive). For the same molecule, the GI50 in assay [18] was 7.6 µM (inactive); in assay [19], 14.1 µM (inactive).
For `N/N=C1\C(OC(=O)Nc2cccc(Cl)c2)=Nc2ccccc21`, the GI50 was 5.92 µM (inactive) in assay [1]; 13.6 µM (inactive) in [2]; 6.47 µM (inactive) in assay [3]; 5.92 µM (inactive) in [4]; 4.58 µM (inactive) in [5]; 12.1 µM (inactive) in [6]. Moreover, the GI50 is 15.3 µM (inactive) in assay [7]; 5.07 µM (inactive) in [20]; 3.13 µM (inactive) in [8]; 6.4 µM (inactive) in [9]; 2.6 µM (inactive) in assay [10]; 7.33 µM (inactive) in assay [11]. Besides, the GI50 is 2.9 µM (inactive) in assay [12]; 12.1 µM (inactive) in assay [13]; 17.1 µM (inactive) in [14]; 14.8 µM (inactive) in [15]; 7.43 µM (inactive) in [16]; 6.22 µM (inactive) in [17]. For the same molecule, the GI50 in assay [18] is 6.9 µM (inactive); in assay [19], 13.7 µM (inactive).
As to `Cn1c(=O)[nH]c2nncnc2c1=O`, the GI50 in assay [1] was 80 µM (inactive); in assay [2], 27.9 µM (inactive); in assay [3] it was 21.3 µM (inactive); in [4] it was 211 µM (inactive); in [5], 23.8 µM (inactive); in [6], 44.7 µM (inactive). Also, the GI50 in [7] is 5.83 µM (inactive); in [20], 179 µM (inactive); in assay [8], 157 µM (inactive); in assay [9], 217 µM (inactive); in assay [10], 78.9 µM (inactive); in [11], 85.5 µM (inactive). Also, the GI50 in assay [12] is 77.4 µM (inactive); in assay [13], 133 µM (inactive); in assay [14], 64.9 µM (inactive); in assay [15], 474 µM (inactive); in assay [16], 146 µM (inactive); in [17] it was 21 µM (inactive). Further, the GI50 was 28.7 µM (inactive) in [18] and 75.3 µM (inactive) in assay [19].
For the molecule `CSc1nc(NC2OC(CO)C(O)C(O)C2O)c(N)c(=O)[nH]1` (centres undefined), the GI50 in assay [1], in [2], in assay [3], in assay [4], in assay [5] and in assay [6] was > 100 µM (inactive) each time. For the same molecule, the GI50 in [7], in [20], in assay [8], in assay [9], in [10] and in [11] was > 100 µM (inactive) in each case. Moreover, the GI50 in assay [12], in [13], in assay [14], in assay [15], in assay [16] and in assay [17] was > 100 µM (inactive) throughout. The GI50 in [18] and in assay [19] was > 100 µM (inactive) in each case.
For the molecule `COc1ccc2c(c1O)-c1cc(O)cc3c1[C@@H](C2)N(C)CC3`, the GI50 in assay [1] was 77.1 µM (inactive); in assay [2] it was 11 µM (inactive); in [3], 19 µM (inactive); in [4], 67.6 µM (inactive); in assay [5] it was 54.8 µM (inactive); in assay [6], 64 µM (inactive). For the same molecule, the GI50 in assay [7] was 47 µM (inactive); in assay [20], 96.8 µM (inactive); in assay [8] it was 121 µM (inactive); in assay [9], 75.9 µM (inactive); in [10], 55.8 µM (inactive); in assay [11] it was 60.5 µM (inactive). For the same molecule, the GI50 in assay [12] was 75.3 µM (inactive); in assay [13], 75.3 µM (inactive); in [14] it was 81.1 µM (inactive); in assay [15], 80 µM (inactive); in [16] it was 203 µM (inactive); in assay [17], 60.7 µM (inactive). Besides, the GI50 in assay [18] was 10.7 µM (inactive); in assay [19], 71 µM (inactive).
